Laboratory results published in the NIST ThermoML archive (doi:10.1016/j.fluid.2013.06.050).

Assays:
[1] = refractive index (Na D-line) (dimensionless); xn = mol fraction of the nth substance listed; settings: 298.15 K, 101 kPa, Liquid, Standard Abbe refractometry
[2] = xn = mol fraction of the nth substance listed; settings: 298.15 K, 101 kPa, Liquid

C[P+](c1ccccc1)(c1ccccc1)c1ccccc1.[Br-] [methyltriphenylphosphonium bromide] + OCCOCCOCCO
[1]
Settings	refractive index
x1 = 0.16	1.5178
x1 = 0.2	1.5263
x1 = 0.25	1.5417

[2], Vibrating tube method
Settings	mass density [kg/m3]
x1 = 0.16	1186
x1 = 0.2	1199.2
x1 = 0.25	1216.4

OCCCCO [1,4-butanediol] + C[N+](C)(C)CCO.[Cl-]
[1]
Settings	refractive index
x2 = 0.25	1.4656
x2 = 0.28	1.468
x2 = 0.34	1.4718

[2], vibrating tube
Settings	mass density [kg/m3]
x2 = 0.25	1061
x2 = 0.28	1067
x2 = 0.34	1073.1

C[N+](C)(C)CCO.[Cl-] [choline chloride] + OCC(O)CO
[1]
Settings	refractive index
x1 = 0.25	1.4818
x1 = 0.34	1.4852
x1 = 0.5	1.491

[2], vibrating tube
Settings	mass density [kg/m3]
x1 = 0.25	1203.5
x1 = 0.34	1192.4
x1 = 0.5	1162.2

C[P+](c1ccccc1)(c1ccccc1)c1ccccc1.[Br-] [methyltriphenylphosphonium bromide] + OCCO
[1]
Settings	refractive index
x1 = 0.16	1.5398
x1 = 0.2	1.553
x1 = 0.25	1.5678

[2], Vibrating tube method
Settings	mass density [kg/m3]
x1 = 0.16	1220.2
x1 = 0.2	1233
x1 = 0.25	1250.4

CCN(CC)CCO.Cl [2-(diethylamino)ethanol hydrochloride] + OCC(O)CO
[1]
Settings	refractive index
x2 = 0.2	1.4812
x2 = 0.25	1.4825
x2 = 0.34	1.4853

[2], vibrating tube
Settings	mass density [kg/m3]
x1 = 0.2	1220.4
x1 = 0.25	1205.7
x1 = 0.34	1183.6

CCN(CC)CCO.Cl [2-(diethylamino)ethanol hydrochloride] + OCCO
[1]
Settings	refractive index
x1 = 0.2	1.4574
x1 = 0.25	1.462
x1 = 0.28	1.465

[2], Vibrating tube method
Settings	mass density [kg/m3]
x1 = 0.2	1103.7
x1 = 0.25	1101.8
x1 = 0.28	1100.6

C[P+](c1ccccc1)(c1ccccc1)c1ccccc1.[Br-] [methyltriphenylphosphonium bromide] + OCC(O)CO
[1]
Settings	refractive index
x1 = 0.2	1.5597
x1 = 0.25	1.5715
x1 = 0.34	1.5917

[2], Vibrating tube method
Settings	mass density [kg/m3]
x1 = 0.2	1289.3
x1 = 0.25	1298
x1 = 0.34	1307.1

C[N+](C)(C)CCO.[Cl-] [choline chloride] + OCCO
[1]
Settings	refractive index
x1 = 0.28	1.4611
x1 = 0.34	1.465
x1 = 0.36	1.4678

[2], vibrating tube
Settings	mass density [kg/m3]
x1 = 0.28	1117.3
x1 = 0.34	1117.7
x1 = 0.36	1118.4
